Data taken from patent publication EP0434057B1, “Indolocarbazole derivatives, processes for their preparation and their use” (GÖDECKE AKTIENGESELLSCHAFT, priority 1989, dated 1991).
Like-named read-outs stand apart in the source and are kept apart here.

Assays:
[1] = molecular target: tyrosinspezifischen Kinase (T-Kinase); settings: read-out: Inhibierung von Proteinkinasen (IC50, µM) T-Kinase; value marked *: J. Antibiot. 1987, 40, 1782; cited from earlier work
[2] = molecular target: Proteinkinase C (PKC); assay: Enzyme assay: inhibition of protein kinase C activated with phosphatidylserine and diacylglycerol (according to EP-A-0 255 126); type: biochemical
[3] = molecular target: T1, cGMP-abhängigen Proteinkinase (G-Kinase) (Bos taurus, UniProt P00516); assay: Inhibition of cGMP-dependent protein kinase (literature method); type: biochemical; settings: read-out: Inhibierung von Proteinkinasen (IC50, µM) G-Kinase
T1 sequence (P00516 2-671): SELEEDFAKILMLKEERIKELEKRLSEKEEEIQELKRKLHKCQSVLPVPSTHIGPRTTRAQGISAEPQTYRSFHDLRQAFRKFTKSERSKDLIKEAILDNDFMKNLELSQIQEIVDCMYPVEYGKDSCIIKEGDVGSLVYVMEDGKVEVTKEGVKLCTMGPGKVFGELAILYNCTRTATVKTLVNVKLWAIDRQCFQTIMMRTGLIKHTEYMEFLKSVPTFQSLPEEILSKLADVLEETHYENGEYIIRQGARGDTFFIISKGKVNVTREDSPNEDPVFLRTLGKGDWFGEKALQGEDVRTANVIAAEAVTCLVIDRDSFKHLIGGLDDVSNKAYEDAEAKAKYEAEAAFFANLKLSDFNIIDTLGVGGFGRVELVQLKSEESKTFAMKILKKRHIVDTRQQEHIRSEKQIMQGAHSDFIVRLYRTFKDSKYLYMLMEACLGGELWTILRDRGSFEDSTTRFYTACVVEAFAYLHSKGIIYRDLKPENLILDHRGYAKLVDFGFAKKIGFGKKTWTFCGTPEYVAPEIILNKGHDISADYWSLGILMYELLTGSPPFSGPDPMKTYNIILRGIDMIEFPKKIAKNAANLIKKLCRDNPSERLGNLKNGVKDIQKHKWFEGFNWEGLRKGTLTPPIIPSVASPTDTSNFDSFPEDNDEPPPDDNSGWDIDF
Description: (§1) Die Bestimmung der Inhibierung von A-, G-, MLC- oder T-Kinase erfolgte nach den in der Literatur beschriebenen Verfahren (Gill, G.N., Walton M., Advances in cyclic nucleotide research, Vol. 10, herausgegeben von G. Brooker und G.A. Robinson, Raven Press, New York, 1979; Eur. J. Biochem. 1986, 158, 203; Biochem. J. 1984, 218, 863; Analyt. Biochem. 1983, 135, 37; Mol. Immunol. 1989, 26, 897).

[4] = molecular target: Myosin Light Chain Kinase (MLC-Kinase) (Gallus gallus, UniProt P11799); assay: Inhibition of myosin light chain kinase (literature method); type: biochemical; settings: read-out: Inhibierung von Proteinkinasen (IC50, µM) MLC-Kinase
Description: as §1

[5] = molecular target: tyrosinspezifischen Kinase (T-Kinase); assay: Inhibition of tyrosine-specific kinase (literature method); type: biochemical; settings: read-out: Inhibierung von Proteinkinasen (IC50, µM) T-Kinase
Description: as §1

Chain of Myosin Light Chain Kinase (MLC-Kinase) (P11799 935-1906): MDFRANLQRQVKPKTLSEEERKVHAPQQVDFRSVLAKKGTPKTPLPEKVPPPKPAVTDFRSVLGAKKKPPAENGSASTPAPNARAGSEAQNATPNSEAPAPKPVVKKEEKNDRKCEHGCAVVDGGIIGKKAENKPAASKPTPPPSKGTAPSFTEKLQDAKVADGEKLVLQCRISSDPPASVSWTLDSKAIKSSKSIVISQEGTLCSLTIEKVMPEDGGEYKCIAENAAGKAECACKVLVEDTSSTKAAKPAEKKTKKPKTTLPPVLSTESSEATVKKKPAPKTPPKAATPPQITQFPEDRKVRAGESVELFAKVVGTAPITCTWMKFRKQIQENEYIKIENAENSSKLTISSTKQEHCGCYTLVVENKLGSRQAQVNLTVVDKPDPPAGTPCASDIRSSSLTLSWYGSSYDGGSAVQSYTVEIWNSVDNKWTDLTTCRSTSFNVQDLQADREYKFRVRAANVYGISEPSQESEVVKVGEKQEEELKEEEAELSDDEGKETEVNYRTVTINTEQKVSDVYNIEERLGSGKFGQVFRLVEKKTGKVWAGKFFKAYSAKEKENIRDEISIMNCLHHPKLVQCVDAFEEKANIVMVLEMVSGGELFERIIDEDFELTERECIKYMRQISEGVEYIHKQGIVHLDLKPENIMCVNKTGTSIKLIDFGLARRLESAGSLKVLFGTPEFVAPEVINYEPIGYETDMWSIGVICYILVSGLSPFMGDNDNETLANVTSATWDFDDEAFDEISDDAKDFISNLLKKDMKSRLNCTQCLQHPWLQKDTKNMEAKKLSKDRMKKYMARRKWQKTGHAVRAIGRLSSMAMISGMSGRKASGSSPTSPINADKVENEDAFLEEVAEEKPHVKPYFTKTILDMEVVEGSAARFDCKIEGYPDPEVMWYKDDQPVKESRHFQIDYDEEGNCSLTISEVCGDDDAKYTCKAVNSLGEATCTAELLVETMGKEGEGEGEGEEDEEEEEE

Row | Compound | IC50 [1] [µM] | IC50 ([2]; PKC activated with Phosphatidylserin and Diacylglycerol, read-out: 50%ige Inhibierung bei einer Konzentration von) [µM] | IC50 ([2]; read-out: Inhibierung von Proteinkinasen (IC50, µM) PKC) [µM] | IC50 [3] [µM] | IC50 [4] [µM] | IC50 [5] [µM]
1 | CN[C@@H]1C[C@H]2O[C@@](C)([C@@H]1OC)n1c3ccccc3c3c4c(c5c6ccccc6n2c5c31)C(=O)NC4 [Staurosporin] | 0.006 | – | – | – | – | –
2 | Cn1c2ccccc2c2c3c(c4c5ccccc5n(CCC#N)c4c21)CNC3=O [Beispiel 2, 12-(2-Cyanoethyl)-6,7,12,13-tetrahydro-13-methyl-5-oxo-5H-indolo[2,3-a]pyrrolo[3,4-c]carbazol] | – | 0.02 | 0.02 | 6.2 | 5.8 | 25
